This is an account of results in patent US20040072770A1, “Methods for specifically inhibiting histone deacetylase-7 and 8” (priority 2002, published 2004).

In data set [1] the test system is colon cancer cells HCT116. Description: MTT assay, HCT116. Format: cell-based, human. Particulars: 72 hours; read-out: IC50 HCT 116 (MTT). On the procedure: Effects of HDAC isotype-specific small molecule inhibitors on growth inhibition of various human cancer cells (from ATCC) in vitro were determined by MTT assays. Briefly, cells seeded in 96-well plates were incubated for 72 hours at 37° C. in a 5% CO2 incubator. MTT (Sigma) was added at a final concentration of 0.5 mg/ml and incubated with the cells for 4 hours before an equal volume of solubilization buffer (50% N,N-dimethylformamide, 20% SDS, pH 4.7) was added onto cultured cells. After overnight incubation, solubilized dye was quantified by colorimetric reading at […] using a reference at 630 nM. OD values were converted to cell numbers according to a standard growth curve of the relevant cell line. The concentration which reduces cell numbers to 50% of those of DMSO-treated cells is determined as MTT IC50. In Table 4, IC50s of several HDAC7 or HDAC8 inhibitors in MTT assays in various human cancer cell lines were listed. They include colon cancer cells HCT116 and SW48, lung cancer cells A549 and H446, breast cancer cells MCF-7 and MDAmb231, a prostate cancer cell line Du145 and a bladder cancer cell line T24.
For orientation: Formazan colour is commonly taken as a measure of viable cells.

Another data set deals with HDAC-1 (Homo sapiens, UniProt Q13547). Description: Enzyme inhibitory activity, HD1. It is filed as biochemical. Particulars: read-out: IC50 HD 1.
The target of the next data set is T1, HDAC-8 (Homo sapiens, UniProt Q9BY41).
T1 sequence (Q9BY41 1-377): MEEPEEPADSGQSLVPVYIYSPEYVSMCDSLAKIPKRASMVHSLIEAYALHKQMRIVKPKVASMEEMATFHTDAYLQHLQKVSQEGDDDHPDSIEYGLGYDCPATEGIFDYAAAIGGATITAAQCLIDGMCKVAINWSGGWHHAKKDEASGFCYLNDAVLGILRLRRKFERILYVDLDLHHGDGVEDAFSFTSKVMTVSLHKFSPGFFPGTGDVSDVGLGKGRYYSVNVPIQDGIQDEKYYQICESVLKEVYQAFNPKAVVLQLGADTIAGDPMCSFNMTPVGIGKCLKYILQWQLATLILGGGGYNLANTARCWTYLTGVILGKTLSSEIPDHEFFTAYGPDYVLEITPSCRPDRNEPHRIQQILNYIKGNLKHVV
Description: Enzyme inhibitory activity, HD8. It is filed as biochemical. Particulars: read-out: IC50 HD 8.

The target in the next data set is HDAC-4 (Homo sapiens, UniProt P56524). As to the kind of experiment: Enzyme inhibitory activity, HD4. It is filed as biochemical.
The subject of another data set is Du145 cells. As to the kind of experiment: Growth inhibition by antisense oligos, Du145. Particulars: 50 nM, 48 hour, vs cells treated with lipofectin. Format: cell-based, human. On the procedure: (§1) For all ex vivo oligo treatment, human A549 human […] carcinoma cells were seeded in 10 cm tissue culture dishes one day prior to oligonucleotide treatment. The cell lines were obtained from the American Type Culture Collection (ATCC) (Manassas, Va.) and were grown under the recommended culture conditions. Before the addition of the oligonucleotides, cells were washed with PBS (phosphate buffered saline). Next, lipofectin transfection reagent (GIBCO BRL Mississauga, Ontario, Calif.), at a concentration of 6.25 μg/ ml, was added to serum free OPTIMEM medium (GIBCO BRL, Rockville, Md.), which was then added to the cells. The oligonucleotides were added directly to the cells (i.e., one oligonucleotide per plate of cells). Mismatched oligonucleotides were used as controls. The same concentration of oligonucleotide (e.g., 50 nM) was used per plate of cells for each oligonucleotide tested.
(§2) In order to determine the effect of HDAC ODNs on cell growth inhibition and cell death through apoptosis, A549, T24, DuI45, HCT116 cells (ATCC, Manassas, Va.), or HMEC cells (BioWhittaker, Walkersville, Md.) were treated with HDAC ODNs as previously described.
(§3) For the cell growth inhibition analysis, human cancer or normal cells were treated with 50 nM of paired AS or MM oligos directed against human HDAC-1, HDAC-7 or HDAC-8for up to 96 hours. Cell numbers were counted every day by trypan blue exclusion. Percentage of inhibition was calculated as (100 - AS cell numbers/control cell numbers)%.

The subject of the next data set is p21 protein. As to the kind of experiment: p21 protein expression in A549 cells. Format: cell-based, human.
For a further data set, the system named is human HDAC-7 mRNA. Description: HDAC-7 mRNA expression in A549 cells, Northern blot. It is filed as cell-based. Particulars: for HDAC-7 RNA expression, initial screen: 100 nM; for HDAC-7 RNA expression, initial screen / HDAC-7 mRNA expression, dose response (FIG. 1): 24 hours; for HDAC-7 mRNA expression, dose response (FIG. 1): 25 or 50 nM. On the procedure:
To identify antisense oligodeoxynucleotide (ODN) capable of inhibiting HDAC-7 expression in human cancer cells, eighteen phosphorothioate ODNs containing sequences complementary to the 5′ or 3′ UTR of the human […] (GenBank Accession No. AF239243) were initially screened in A549 cells at 100 nM. Cells were harvested after 24 hours of treatment, and HDAC-7 RNA expression was analyzed by Northern blot analysis. […] Total RNAs were harvested and were analyzed by Northern Blot. GAPDH expression was analyzed to indicate total RNA loading in each lane.
(§4) In order to determine the dose response of HDAC7 antisense inhibitors to reduce HDAC7 message at the mRNA level, Human A549 cells were treated with 25 or 50 nM of antisense (AS1 and AS2) oligos directed against human HDAC-7 or the corresponding mismatch of AS1 (MM1) oligo or an universal mismatch (UMM) for 24 hours. […] The time dependence of HDAC7 antisense inhibitors on blocking HDAC7 gene expression at the mRNA level was analyzed by treating A549 cells with 50 nM AS1 or MM1 oligos. […] Similarly, A549 cells were treated with 25 nM or 50 nM of AS1 or AS2 oligos directed against human HDAC-8 or its MM oligo for AS2 (MM2) for 24 hours. AS-2 oligo against human HDAC8 at 50 nM was also used to treat A549 cells for 24 or 48 hours.
as §1
(§5) Cells were harvested, and total RNAs were analyzed by Northern blot analysis. Briefly, total RNA was extracted using RNeasy miniprep columns (QIAGEN Canada, Mississauga, Ontario). Ten to twenty […] of total RNA was run on a formaldehyde-containing 1% agarose gel with 0.5 M sodium phosphate (pH 7.0) as the buffer system. RNAs were then transferred to nitrocellulose membranes and hybridized with the indicated radiolabeled DNA probes. Autoradiography was performed using conventional procedures.

The test system of the next data set is A549 cells. Description: Growth inhibition by antisense oligos, A549. It is filed as cell-based, human. As to conditions: 50 nM, 48 hour, vs cells treated with lipofectin. The method, then: as §1, §2, §3
The test system of a further data set is human HDAC-7 protein. Description: HDAC-7 protein expression in A549 cells, SDS-PAGE and antibody probing. Format: cell-based. As to conditions: 25 or 50 nM, 48 hours (time course 24 or 48 hours). The method, then:
In order to determine whether treatment with HDAC ODNs would inhibit HDAC protein expression, human A549 cancer cells were treated with 25 or 50 nM of paired antisense or its mismatch oligos directed against human HDAC-7 for 48 hours. ODN treatment conditions were as previously described.
Cells were lysed in buffer containing 1% Triton X-100, 0.5% sodium deoxycholate, 5 mM EDTA, 25 mM Tris-HCl, pH 7.5, plus protease inhibitors. Total protein was quantified by the protein assay reagent from Bio-Rad (Hercules, Calif.). 100 ug of total protein was analyzed by SDS-PAGE. Next, total protein was transferred onto a PVDF membrane and probed with HDAC-7-specific primary antibodies.

A further data set has as its system human HDAC-8 mRNA. As to the kind of experiment: HDAC-8 mRNA expression in A549 cells, Northern blot. Format: cell-based. As to conditions: 24 hours. The method, then:
To identify antisense oligodeoxynucleotides (ODN) capable of inhibiting HDAC-8 expression in human cancer cells, fourteen phosphorothioate ODNs containing sequences complementary to the 5′ or 3′ UTR of the human […] (GenBank Accession No. AF230097) were initially screened in A549 cells at 100 nM. Cells were harvested after 24 hours of treatment, and HDAC-8 RNA expression was analyzed by Northern blot analysis. […] Total RNAs were harvested and were analyzed by Northern Blot. GAPDH expression was analyzed to indicate total RNA loading in each lane.
as §4, §1, §5

“Also recorded” adds a separate entry of the source. d = 2'-deoxy (DNA); m = 2'-O-methyl

Sequence of HDAC-4 (P56524 whole entry): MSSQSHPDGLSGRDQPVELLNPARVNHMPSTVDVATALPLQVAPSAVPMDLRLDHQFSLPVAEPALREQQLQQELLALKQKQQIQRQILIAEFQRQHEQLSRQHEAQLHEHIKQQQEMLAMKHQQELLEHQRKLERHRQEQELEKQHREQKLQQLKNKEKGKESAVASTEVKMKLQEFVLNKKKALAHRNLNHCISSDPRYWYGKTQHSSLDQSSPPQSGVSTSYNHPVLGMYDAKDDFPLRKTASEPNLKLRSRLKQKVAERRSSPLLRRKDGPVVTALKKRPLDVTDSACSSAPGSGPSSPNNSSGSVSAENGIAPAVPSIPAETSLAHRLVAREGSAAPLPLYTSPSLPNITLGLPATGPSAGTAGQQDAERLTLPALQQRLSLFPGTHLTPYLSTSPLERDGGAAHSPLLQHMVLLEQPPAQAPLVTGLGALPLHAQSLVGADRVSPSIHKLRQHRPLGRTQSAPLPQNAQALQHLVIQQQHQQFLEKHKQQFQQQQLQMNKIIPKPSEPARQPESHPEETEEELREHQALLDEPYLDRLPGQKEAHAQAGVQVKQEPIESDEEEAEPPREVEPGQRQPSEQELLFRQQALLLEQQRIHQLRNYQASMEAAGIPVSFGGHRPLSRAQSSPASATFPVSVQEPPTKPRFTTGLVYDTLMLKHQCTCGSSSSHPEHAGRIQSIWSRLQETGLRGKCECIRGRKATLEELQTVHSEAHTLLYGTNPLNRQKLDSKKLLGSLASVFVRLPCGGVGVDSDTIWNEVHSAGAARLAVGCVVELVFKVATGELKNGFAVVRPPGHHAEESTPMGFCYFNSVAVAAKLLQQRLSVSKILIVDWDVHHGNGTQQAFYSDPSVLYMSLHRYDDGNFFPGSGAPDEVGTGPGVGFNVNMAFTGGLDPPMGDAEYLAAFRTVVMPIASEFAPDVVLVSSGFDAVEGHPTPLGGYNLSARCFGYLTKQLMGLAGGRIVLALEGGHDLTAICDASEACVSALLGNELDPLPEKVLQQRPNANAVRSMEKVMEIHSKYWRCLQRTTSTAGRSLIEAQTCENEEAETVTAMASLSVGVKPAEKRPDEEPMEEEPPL
Sequence of HDAC-1 (Q13547 whole entry): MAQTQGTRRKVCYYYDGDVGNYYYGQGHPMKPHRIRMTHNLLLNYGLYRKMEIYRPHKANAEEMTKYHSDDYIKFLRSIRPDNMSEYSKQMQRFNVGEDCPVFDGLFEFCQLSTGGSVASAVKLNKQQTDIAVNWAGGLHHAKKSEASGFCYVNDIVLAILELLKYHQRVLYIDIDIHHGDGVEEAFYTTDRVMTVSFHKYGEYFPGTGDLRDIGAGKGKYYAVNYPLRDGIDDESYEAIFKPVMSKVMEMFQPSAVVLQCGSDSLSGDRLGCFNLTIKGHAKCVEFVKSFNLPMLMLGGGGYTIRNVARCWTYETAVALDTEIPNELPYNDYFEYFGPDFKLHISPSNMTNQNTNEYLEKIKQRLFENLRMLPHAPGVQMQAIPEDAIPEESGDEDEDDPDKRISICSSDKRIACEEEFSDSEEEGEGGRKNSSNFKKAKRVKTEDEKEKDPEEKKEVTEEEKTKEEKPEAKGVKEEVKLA

Consider `CC(C=CC(=O)NO)=CC(C)Cc1ccc(N(C)C)cc1` (stereo not shown) [Compound 4, N-Hydroxy-4,6-dimethyl-7-[(4-N,N-dimethylaminophenyl)]-2,4-heptadienamide], for which the IC50 in data set [1] was 6000 nM; on HDAC-1, 2000 nM; on HDAC-8 it was 400 nM; on HDAC-4 it was greater than 10000 nM.

For the compound “5′-CGCUTTCCTTGTCATTGACA-3′ (sugars from the 5' end m4 d12 m4, all phosphorothioate, methylation of C not given here) [HD3 AS1, antisense oligo, Human HDAC3 3′-UTR]”, the “Growth Inhibition Du145” value in the data set with Du145 cells is “+ (“+” means >35% inhibition of cell growth by antisense oligos (50 nM, 48 hour) compared to that of cells treated with lipofectin)”.

In the case of “5′-CAGGCTCACTTGACAAUGGC-3′ (sugars from the 5' end m4 d12 m4, all phosphorothioate, methylation of C not given here) [HD7 AS1, antisense oligo, Human HDAC7 5′-UTR]”, the “p21 protein expression (FIG. 2)” value in the data set on p21 protein is recorded as “induced”. In addition, in the data set on human HDAC-7 mRNA (50 nM), the “HDAC-7 mRNA expression, time course (FIG. 3)” value is listed as “significantly block gene expression of human HDAC7 at the mRNA level by 24 hours”. Besides, the “HDAC-7 RNA expression, initial screen” value in the data set with human HDAC-7 mRNA is given as “good antisense activities”. In the data set on human HDAC-7 mRNA (listed as HDAC7 AS1), the “HDAC-7 mRNA expression, dose response (FIG. 1)” value was “can inhibit human HDAC7 expression at the mRNA level; also recorded: inhibited in a dose-dependent manner”. The “Growth Inhibition A549” value with A549 cells was “+ (“+” means >35% inhibition of cell growth by antisense oligos (50 nM, 48 hour) compared to that of cells treated with lipofectin)”. Further, the “Growth Inhibition Du145” value in the data set on Du145 cells is “+ (“+” means >35% inhibition of cell growth by antisense oligos (50 nM, 48 hour) compared to that of cells treated with lipofectin)”. Also, the “HDAC-7 protein expression (FIG. 2, FIG. 4)” value in the data set with human HDAC-7 protein is on record as “inhibited”.

“5′-CUUCAGCCAGGATGCCCACA-3′ (sugars from the 5' end m4 d12 m4, all phosphorothioate, methylation of C not given here) [HDAC7 AS2, antisense oligo, Human HDAC7 3′-UTR]”: the “p21 protein expression (FIG. 2)” value with p21 protein is listed as “induced”. In addition, in the data set on human HDAC-7 mRNA, the “HDAC-7 RNA expression, initial screen” value was “good antisense activities” and the “HDAC-7 mRNA expression, dose response (FIG. 1)” value is on record as “can inhibit human HDAC7 expression at the mRNA level; also recorded: inhibited in a dose-dependent manner”. In addition, the “HDAC-7 protein expression (FIG. 2, FIG. 4)” value in the data set with human HDAC-7 protein is on record as “inhibited”.

Consider “5′-CUCCGGCTCCTCCATCUUCC-3′ (sugars from the 5' end m4 d12 m4, all phosphorothioate, methylation of C not given here) [HDAC8 AS1, antisense oligo, Human HDAC8 5′-UTR]”, for which the “HDAC-8 mRNA expression, dose response (FIG. 5)” value in the data set on human HDAC-8 mRNA (25 nM or 50 nM) was “inhibited in a dose-dependent manner”. In the data set with human HDAC-8 mRNA (100 nM), the “HDAC-8 RNA expression, initial screen” value is on record as “good antisense activities”.

Turning to “5′-GCAGCGGCGGCAGCACCUCC-3′ (sugars from the 5' end m4 d12 m4, all phosphorothioate, methylation of C not given here) [HD5 AS1, antisense oligo, Human HDAC5 5′-UTR]”, the “Growth Inhibition Du145” value in the data set with Du145 cells is reported as “+ (“+” means >35% inhibition of cell growth by antisense oligos (50 nM, 48 hour) compared to that of cells treated with lipofectin)”.

Broadly, the IC50 is the midpoint of a concentration-inhibition curve.
